Reference: patent publication US12565467B2, “Compounds, compositions, and methods for the treatment of inflammatory, degenerative, and neurodegenerative diseases” (Board of Supervisors of Louisiana State University and …, priority 2015, dated 2026)
Entries after “also recorded” stand apart in the source; their conditions may differ.

Experiments:
Bcl2 = Bcl2 protein in RPE (LOX-D / ARPE-19) cells under oxidative stress; assay type: cell-based, human
Source text: FIG. 9. (A) VLC-PUFA and elovanoids ELV1 and ELV2 mediated effect on Bcl2 upregulation in ARPE-19 cells under stress. In this experiment we tested the effect of elovanoid precursors on Bcl2 upregulation along with VLC-PUFA in stressed RPE. (B) Quantification of Bcl2 upregulation by NPD1, ELV1 and ELV2 in LOX-D cells. Bcl2 is an important antiapoptotic protein of the Bcl2 family protein.
FIG. 9—(A) VLC-PUFA and elovanoids ELV1 and ELV2 mediated effect on Bcl2 upregulation in ARPE-19 cells under stress. In this experiment we tested the effect of elovaniod precursors on Blc2 upregulation along with VLC-PUFA in stressed RPE. (B) Quantification of Bcl2 upregulation by NPD1, ELV1 and ELV2 in LOX-D cells. Bcl2 is an important antiapoptotic protein of the Bcl2 family protein.

[1] = test system: neuronal cells in primary cultures; assay: NMDA-induced toxicity in neuronal cells in primary culture, MTT assay for cell viability; assay type: cell-based
Source text: FIG. 11. […] In several neurological and neurodegenerative diseases, such as stroke, epilepsy, status epilepticus, traumatic head injury, etc., as well as ophthalmological diseases, such as glaucoma, an excessive presynaptic release of the excitatory neurotransmitter glutamate takes place. As a consequence, glutamate transporters that function to remove extracellular glutamate from astrocytes and neurons are overwhelmed and the NMDA-type glutamate receptor is over-activated. This receptor is a calcium channel that therefore leads to a flooding of calcium into the postsynaptic cell. The overall phenomena is refer to as excitotoxicity that in turn leads to neuronal damage and cell death. MK801 is a known blocker of this receptor used here as a control.
In several neurological and neurodegenerative diseases, such as stroke, epilepsy, status epilepticus, traumatic head injury, etc., as well as ophthalmological diseases, such as glaucoma, an excessive presynaptic release of the excitatory neurotransmitter glutamate takes place. As a consequence, glutamate transporters that function to remove extracellular glutamate from astrocytes and neurons are overwhelmed and the NMDA-type glutamate receptor is over-activated. This receptor is a calcium channel that therefore leads to a flooding of calcium into the postsynaptic cell. The overall phenomena is refer to as excitotoxicity that in turn leads to neuronal damage and cell death. MK801 is a known blocker of this receptor used here as a control.

ARPE-19 cells = assay: Oxidative stress induced apoptosis / cell death in ARPE-19 cells; assay type: cell-based, human; conditions: for concentration dependent cytoprotection (FIG. 5C): ARPE-19 under OS
Procedure: FIG. 5. (A) Effect of PD146176 on VLC-PUFA-inhibited apoptosis induced by OS in ARPE-19 cells. […] It is evident that 32:6 and 34:6 LCAF were able to induce a substantial amount (55 and 48% respectively) of neuroprotection compared to PD 146176 (22%) when the stressed cells were treated with 5 μm of 15-LOX-D1 inhibitor. It can be concluded that since PD146176 is the inhibitor of 15-lipooxygenase enzyme, it might be protecting the stressed RPE cells by accumulating neuroprotective agents inside the cells. (B) Comparison of cytoprotective capacities of NPD1, C32:6 and C34:6 VLC-PUFA on oxidative stress-induced apoptosis in 15-LOX-1 cells. Shown here is the comparison of neuroprotection in a 15-LOX-1-deficient cell line under oxidative stress with 32:6 and 34:6 VLC-PUFA along with NPD1. 32:6 and 34:6 LCAF were able to induce neuroprotection (45% and 40% respectively), as compared to oxidative stress (90%) under this condition. (C) Concentration dependent cytoprotection by C32:6 and C34:6 VLC-PUFA in oxidative-stress induced ARPE-19 cells. A concentration (50-500 nM) kinetic of cytoprotection induced by LCAF 32:6 and 34:6 in RPE cell culture under OS was shown here. […] We decided to use 250 nM concentrations of 32:6 and 34:6 LCAF in subsequent experiments. (D) Selected images of alive and dead cells from this study (control, OS, treatment with C32:6).
FIG. 5—(A) Effect of PD146176 on VLC-PUFA inhibited apoptosis induced by OS in ARPE-19 cells. […] It is evident that 32:6 and 34:6 LCAF were able to induce a substantial amount (55 and 48% respectively) of neuroprotection compared to PD 146176 (22%) when the stressed cells were treated with 5 μm of 15-LOX-D1 inhibitor. It can be concluded that since PD146176 is the inhibitor of 15-lipooxygenase enzyme, it might be protecting the stressed RPE cells by accumulating neuroprotective agents inside the cells. (B) Comparison of cytoprotective capacities of NPD1, C32:6 and C34:6 VLC-PUFA on oxidative stress-induced apoptosis in 15-LOX-1 cells. Shown here is the comparison of neuroprotection in a 15-LOX-1-deficient cell line under oxidative stress with 32:6 and 34:6 VLC-PUFA along with NPD1. 32:6 and 34:6 VLC-PUFA were able to induce neuroprotection (45% and 40% respectively), as compared to oxidative stress (90%) under this condition. (C) Concentration dependent cytoprotection by C32:6 and C34:6 VLC-PUFA in oxidative-stress induced ARPE-19 cells. A concentration (50-500 nM) kinetic of cytoprotection induced by VLC-PUFA 32:6 and 34:6 in RPE cell culture under OS was shown here. […] We decided to use 250 nM concentrations of 32:6 and 34:6 VLC-PUFA in subsequent experiments. (D) Selected images of alive and dead cells from this study (control, OS, treatment with C32:6).

[2] = test system: human retinal pigment epithelial cells (ARPE-19, HRPE); assay: Formation of hydroxylated derivatives from VLC-PUFA in human RPE cells in culture (LC-MS/MS); assay type: in vitro ADME; conditions: 34:6n3 100 nM, 12-16 hours, culture media
Procedure: FIG. 2. Evidence of cell-derived hydroxylated derivatives (29-hydroxy-34:6 and 22,29-dihydroxy-34:6) derived from the omega-3 VLC-PUFA 34:6n3 (C34:6) from human retinal pigment epithelial cells in culture. Human retinal pigment epithelial cells (spontaneously transformed ARPE-19 cells) or primary human retinal pigment epithelial cells (HRPE) were incubated with 34:6n3 (100 nM) during 12-16 hours and then the culture media collected lipid extracted and run in LC-MS/MS.
Evidence for the formation of hydroxylated VLC-PUFA in cells as postulated in FIG. 1, and as documented in FIG. 2. […] The preferred structures of 2 are 2a and 2b, while the preferred structures of 3 are 3a and 3b. […] The cell-derived hydroxylated derivatives 2 and 3 were obtained from human retinal pigment epithelial cells in culture. Human retinal pigment epithelial cells (spontaneously transformed ARPE-19 cells) or primary human retinal pigment epithelial cells (HRPE) were incubated with 34:6n3 (100 nM) during 12-16 hours and then the culture media collected lipid extracted and run in LC-MS/MS. […] The stereochemistry of the mono- and di-hydroxy compounds were not possible to determine, but they were presumed to be the same as those derived from DHA.

With `CC/C=C\C[C@H](O)\C=C/C=C/C=C/[C@H](O)C/C=C\C/C=C\CCCCCCCCCCCCCCC(=O)O` [ELV2, (16Z,19Z,22R,23E,25E,27Z,29S,31Z)-22,29-dihydroxytetratriaconta-16,19,23,25,27,31-hexaenoic acid] the “effect on Bcl2 protein (FIG. 9)” value (Bcl2) was “potent upregulation”, the “protection of neuronal cells from NMDA-induced toxicity (FIG. 11A)” value ([1]; 200 nM) was “potently protects neuronal cells” and the “cell death and cell viability with NMDA in increasing concentrations (FIG. 11)” value ([1]; neuronal cultures, MTT) was “reduces cell death and increases cell viability”.

For `CC/C=C\C/C=C\C/C=C\C/C=C\C/C=C\C/C=C\CCCCCCCCCCCCCCC(=O)O` [C34:6], the “concentration dependent cytoprotection (FIG. 5C)” value (ARPE-19 cells; 250 nM) was “very good intermediate effect”, the “concentration dependent cytoprotection (FIG. 5C)” value (ARPE-19 cells; 500 nM) was “maximum effect” and the “protection against OS in RPE cells (summary, FIGS. 4-10)” value (ARPE-19 cells; RPE cells) was “protective against OS”. The “concentration dependent cytoprotection (FIG. 5C)” value (ARPE-19 cells; starting from 50 nM) was “gradual decrease of cell deaths”, the “neuroprotection (FIG. 5A)” value (ARPE-19 cells; stressed ARPE-19 cells treated with 5 μm of 15-LOX-D1 inhibitor PD146176) was 48% and the “conversion to mono- and di-hydroxylated derivatives in cell culture (FIG. 2)” value [2] was “yielded a hydroxylated product; also recorded: could be detected”.
